Experimental data: patent publication US20240091227A1, “Use Of 2-Phenyl-6-(1H-Imidazol-1-YL) Quinazoline For Treating Neurodegenerative Diseases, Preferably Alzheimer's Disease” (ROTTAPHARM BIOTECH S.R.L., priority 2019, published 2024)
Entries after “also recorded” stand apart in the source; their conditions may differ.

How the values were obtained:
[1] = system: Rats treated with scopolamine; assay: Morris water maze in scopolamine-induced memory impairment; format: in vivo, rat; conditions: scopolamine 1 mg/kg sc, CR4056 20 mg/kg os, mean over four days
Method: FIG. 4 reports the results of the Morris Water Maze test in the model of scopolamine-induced memory loss. Rats treated with scopolamine (Sco, 1 mg/kg) or physiological solution (Sal) received CR4056 20 mg/kg/die or its vehicle (MC). Data represented the mean time spent to reach the hidden platform over four days. Two way ANOVA. Tukey Comparison test. ** P<0.01.
The Morris water maze test was used to evaluate cognitive function distinct in two phases: first, the acquisition and spatial localization of a hidden platform and, subsequently, the processing, consolidating, retaining and then retrieving the acquired information to successfully locate the platform to escape the water.
Place navigation required the rats to learn to swim from any starting position to the escape platform, thereby acquiring a long-term memory of the platform's spatial location. Animals were placed into various quadrants of the pool and the time elapsed and the distance traversed to reach the hidden platform was recorded. Various objects were placed in the testing room so that the animals used these visual cues as a means of navigating in the Maze. After repeated entry into the Maze, the animals became more and more efficient at locating the platform, thus escaping the water by learning the location of the platform relative to the distal visual cues. […]

[2] = system: Iba1-positive microglial cells; assay: Spinal microglia activation (Iba1 immunofluorescence) in CFA inflammatory model; format: in vivo, rat; conditions: rats, 6 mg/kg os single administration 72 hours post-CFA, evaluated after 90 minutes
Method: FIG. 2 reports the results of spinal microglia activation at 72 hours following CFA injection. The quantification of microglia activation in ipsilateral L5 SC dorsal horn was determined as the number of Iba1-positive microglia, displaying a clearly swollen cell body with reduced processes, within the analyzed selected frame of the superficial laminae. Data represent the mean of 5 animals/group. Ordinary one way ANOVA followed by Dunnet's multiple comparison (**p<0.05).
Microglial cells activation was evaluated by immunofluorescence staining, measuring the expression of ionized calcium-binding adapter molecule 1 (Iba-1) in ipsilateral L5 spinal cord in complete Freund's adjuvant (CFA) model. […]
CR4056 (6 mg/kg, os) was administered 72 hours post-CFA and after 90 minutes animals were deeply anesthetized with an overdose of urethane (1.5 g·kg−1, i.p.) and then transcardially perfused with 250 mL 0.9% saline containing 1% heparin (5000 UI·mL−1), followed by 500 mL 10% formalin (i.e., 4% paraformaldehyde, Bio-Optica Spa, Milan, Italy). […] For each section, a representative image of both the ipsilateral and the contralateral dorsal horn (laminae I-III) of the L5 spinal cord was captured at 20× magnification, using consistent exposure times across all sections, and then analysed. […] For each animal (n=5 per group) 6 non-consecutive sections were analysed and results were averaged.

rats = assay: Rotarod and open field tests (motor coordination and locomotor activity); format: in vivo, rat; conditions: suprapharmacological concentrations
Source text: These findings indicate that CR4056 could be a safe drug for treating neurodegenerative diseases, and, in particular, Alzheimer disease.

COX-2 = COX-2 gene expression in IL-1β-stimulated U373 MG astrocytoma cells (RT-PCR); format: cell-based, human; conditions: IL-1β 2 ng/ml
Method: A model of astrocytes, the human glioblastoma astrocytoma cell line U373 MG (Uppsala), was used for these experiments. Adherent cells were grown in DMEM medium supplemented with 10% FBS at 37° C. with CO2. 72 hours after plating, cells were treated for 1 h with 2-phenyl-6-(1H-imidazol-1-yl)quinazoline (CR4056) (10 μM) prepared according to EP2066653 and then stimulated with the pro-inflammatory cytokine IL-1β (2 ng/mL) for further 6 and 24 h.
At the end of incubation period, total RNA was obtained and retro-transcribed using the High-Capacity cDNA Reverse Transcription Kit (Thermo Fisher Scientific). The levels of expression of COX-2, IL-1β, IL-6 and TNFα were evaluated by RT-PCR analysis, performed using the Applied Biosystems 7500 Fast Real-Time PCR System using specific TaqMan assays and, as an endogenous control, the 18S Pre-Developed TaqMan® Assay (Thermo Fisher Scientific). The data analysis, with normalisation on 18S amplified values, was according to Thermo Fisher Scientific specific instructions for gene expression relative quantification. All individual data were the result of at least three different measurements for each sample.
Percentage of gene expression inhibition observed in U373 cells stimulated with IL-1β 2 ng/ml and exposed to 10 μM CR4056 for the indicated time.

c1ccc(-c2ncc3cc(-n4ccnc4)ccc3n2)cc1 [CR4056, 2-phenyl-6-(1H-imidazol-1-yl)quinazoline]
Time to reach the hidden platform, Morris water maze [1]: significantly reduced the time taken to get to the platform
Microglia activation in ipsilateral L5 spinal cord dorsal horn (Iba1-positive activated microglia) [2]: completely restored the basal conditions of microglia; also recorded: significantly reduced microglia activation
Impairment of motor coordination and locomotor activity (rotarod and open field tests) (rats): nor impairment of motor coordination and locomotor activity
Percentage of gene expression inhibition, COX-2 (COX-2; 10 μM CR4056, 6 h): 45%
Percentage of gene expression inhibition, COX-2 (COX-2; 10 μM CR4056, 24 h): 48%
